In paper PMC3624624 (Bioorganic & medicinal chemistry letters, 2013):

Key:
CXCR4 [1] = target: T1, CXCR4 (Homo sapiens, UniProt P61073); experiment: Inhibition of binding of anti-CXCR4 mAbs to cells; type: cell-based; conditions: for inhibition of binding of anti-CXCR4 mAb 12G5 / inhibition of binding of anti-CXCR4 mAb 44708 / inhibition of binding of anti-CXCR4 mAb 44716 / inhibition of binding of anti-CXCR4 mAb 44717: 3 μM, Fig. 2C; for inhibition of anti-CXCR4 mAb 12G5 binding: titration, H9 cells and primary T cell blasts, Fig. 2B; for blocking of anti-CXCR4 mAb 44716 binding: H9 lymphoma cells, 1 μM compound, Fig. 2A
PHA blast cultures = experiment: MTS toxicity on PHA blast cultures; type: cell-based; conditions: 72 h, concentrations up to 4 μM, data not shown
X4 strains of HIV-1 = experiment: TZM-bl HIV-1 neutralization assay, X4 isolates; type: cell-based; conditions: TZM-bl cells, Fig. 3B
CD4 = CD4 (Homo sapiens, UniProt P01730); experiment: Inhibition of binding of control anti-CD4 mAb Sim.2 to cells; type: cell-based; conditions: titration, H9 cells and primary T cell blasts, Fig. 2B
H9 = experiment: MTS toxicity on H9; type: cell-based; conditions: H9, 72 h, concentrations up to 4 μM, data not shown
CXCR4 [2] = target: T1, CXCR4; experiment: Fluorescent T-140/CXCR4 cross-link inhibition; type: binding
TZM-bl = experiment: MTS toxicity on TZM-bl; type: cell-based; conditions: 72 h, concentrations up to 4 μM, data not shown

T1 sequence (P61073 whole entry): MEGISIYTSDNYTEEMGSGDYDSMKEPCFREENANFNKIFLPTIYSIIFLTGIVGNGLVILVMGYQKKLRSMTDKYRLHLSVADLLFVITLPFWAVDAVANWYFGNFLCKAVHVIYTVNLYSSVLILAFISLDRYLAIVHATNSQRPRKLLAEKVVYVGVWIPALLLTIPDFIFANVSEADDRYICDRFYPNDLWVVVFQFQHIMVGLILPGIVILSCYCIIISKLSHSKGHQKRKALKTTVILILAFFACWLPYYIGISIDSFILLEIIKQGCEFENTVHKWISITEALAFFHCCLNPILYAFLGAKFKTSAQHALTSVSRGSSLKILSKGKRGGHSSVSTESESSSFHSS

Row | Compound | inhibition of binding of anti-CXCR4 mAb 12G5 (CXCR4 [1]) | inhibition of binding of anti-CXCR4 mAb 44708 (CXCR4 [1]) | inhibition of binding of anti-CXCR4 mAb 44716 (CXCR4 [1]) | inhibition of binding of anti-CXCR4 mAb 44717 (CXCR4 [1]) | inhibition of anti-CXCR4 mAb 12G5 binding (CXCR4 [1]) | blocking of anti-CXCR4 mAb 44716 binding (CXCR4 [1]) | inhibition in MTS dye reduction (PHA blast cultures) | inhibition of a panel of four X4-tropic viruses (X4 strains of HIV-1) | inhibition of anti-CD4 mAb Sim.2 binding (CD4) | inhibition in MTS dye reduction (H9) | fold higher CXCR4 affinity than the previously published phenylguanides (CXCR4 [2]) | inhibition in MTS dye reduction (TZM-bl)
1 | NCCCNCCCCNCCCN [spermine, reference compound] | No inhibition | No inhibition | No inhibition | No inhibition | does not inhibit | – | – | – | – | – | – | –
2 | N=C(NCCCNCCCCN(CCCNC(=N)Nc1ccc2ccccc2c1)C(=N)Nc1ccc2ccccc2c1)Nc1ccc2ccccc2c1 [spermine tris-2-NapG, spermine tris-2-naphthylguanide] | – | – | – | – | – | next best | – | – | – | – | – | –
3 | N=C(NCCCNCCCCN(CCCNC(=N)Nc1cccc2ccccc12)C(=N)Nc1cccc2ccccc12)Nc1cccc2ccccc12 [spermine tris-1-NapG, spermine tris-1-naphthylguanide] | completely inhibited | only partly inhibited | completely inhibited | only partly inhibited | inhibits anti-CXCR4 binding | most effective | no significant inhibition | all were inhibited at submicromolar concentrations | not anti-CD4 | no significant inhibition | 5 fold | no significant inhibition
